This passage reports IC50 results from patent US20220033397A1, “PHARMACEUTICAL COMPOUNDS AND THEIR USE AS INHIBITORS OF UBIQUITIN SPECIFIC PROTEASE 19 (USP19)” (ALMAC DISCOVERY LIMITED, priority 2018, published 2022).

In this assay the target is T1, Full-length USP19 (Homo sapiens, UniProt O94966).
T1 construct: Full-length USP19 was purchased from Boston Biochem (E-576); purchased Boston Biochem E-576
T1 sequence (O94966 1-1318): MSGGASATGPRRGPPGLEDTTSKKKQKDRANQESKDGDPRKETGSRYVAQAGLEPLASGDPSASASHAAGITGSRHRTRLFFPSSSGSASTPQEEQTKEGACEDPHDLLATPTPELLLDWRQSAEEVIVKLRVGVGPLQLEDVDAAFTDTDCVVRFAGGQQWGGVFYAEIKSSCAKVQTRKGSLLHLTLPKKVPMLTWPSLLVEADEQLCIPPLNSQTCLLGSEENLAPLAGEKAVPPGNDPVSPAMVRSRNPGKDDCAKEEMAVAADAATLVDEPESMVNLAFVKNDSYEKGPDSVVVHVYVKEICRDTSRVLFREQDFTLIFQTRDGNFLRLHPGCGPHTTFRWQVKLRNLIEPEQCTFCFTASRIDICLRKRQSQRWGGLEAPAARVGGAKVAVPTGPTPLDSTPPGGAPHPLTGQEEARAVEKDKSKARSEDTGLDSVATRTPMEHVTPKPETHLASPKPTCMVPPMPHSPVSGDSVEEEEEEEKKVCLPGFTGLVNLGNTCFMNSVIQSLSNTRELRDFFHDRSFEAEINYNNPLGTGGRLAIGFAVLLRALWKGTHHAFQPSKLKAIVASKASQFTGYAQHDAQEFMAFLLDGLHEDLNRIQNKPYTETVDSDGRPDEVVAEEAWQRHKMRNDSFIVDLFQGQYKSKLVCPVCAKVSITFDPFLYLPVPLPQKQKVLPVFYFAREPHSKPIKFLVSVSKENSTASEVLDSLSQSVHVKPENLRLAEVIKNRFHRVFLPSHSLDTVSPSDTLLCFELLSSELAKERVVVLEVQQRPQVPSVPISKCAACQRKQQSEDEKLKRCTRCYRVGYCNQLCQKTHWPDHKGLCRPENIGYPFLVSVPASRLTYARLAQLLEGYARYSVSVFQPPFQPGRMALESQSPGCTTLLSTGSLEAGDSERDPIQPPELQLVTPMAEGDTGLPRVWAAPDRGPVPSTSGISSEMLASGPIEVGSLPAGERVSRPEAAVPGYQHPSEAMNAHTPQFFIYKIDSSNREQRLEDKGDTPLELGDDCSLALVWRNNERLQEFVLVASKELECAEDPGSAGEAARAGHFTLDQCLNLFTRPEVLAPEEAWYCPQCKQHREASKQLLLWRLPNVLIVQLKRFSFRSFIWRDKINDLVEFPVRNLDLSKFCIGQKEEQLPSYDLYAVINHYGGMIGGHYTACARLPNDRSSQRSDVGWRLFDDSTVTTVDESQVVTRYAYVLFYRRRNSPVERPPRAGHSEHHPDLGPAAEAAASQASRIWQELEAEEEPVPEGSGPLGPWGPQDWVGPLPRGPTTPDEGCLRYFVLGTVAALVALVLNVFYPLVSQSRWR
Description: USP19 fluorescence polarisation (FP) homogeneous assay with Ubiquitin-Lys-TAMRA substrate. Type of assay: biochemical. The settings on record: 2.5 nM USP19, 30 min pre-incubation, average of at least two duplicate experiments. Summed up:
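Full-length USP19 preincubated 30 min at RT with inhibitor (200 μM to 2 μM series, 8–18 points) before adding 500 nM Ubiquitin-Lys-TAMRA substrate.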
In general terms: Polarisation of emitted light reports the rotation of a fluorescent probe.

Turning to `O=C(NCc1ccccc1)N1CCC(O)(Cn2cnc(Cl)cc2=O)C2(CCCC2)C1` (stereo not drawn) [Example 198, N-Benzyl-10-((4-chloro-6-oxopyrimidin-1(6H)-yl)methyl)-10-hydroxy-7-azaspiro[4.5]decane-7-carboxamide], the IC50 (commonly the concentration at which inhibition is half-maximal) lay within 50 to 250 µM.

With `O=C(NCc1cccnc1)N1CCC(O)(Cn2cnc(-c3ccccc3)cc2=O)C2(CCCC2)C1` (stereo not drawn) [Example 199, 10-Hydroxy-10-((6-oxo-4-phenylpyrimidin-1(6H)-yl)methyl)-N-(pyridin-3-ylmethyl)-7-azaspiro[4.5]decane-7-carboxamide], the IC50 fell in the range of 50 to 250 µM.

Turning to `O=C(NCc1ccccc1)N1CCC(O)(Cn2cnc(-c3cccnc3)cc2=O)C2(CCCC2)C1` (stereo not drawn) [Example 200, N-Benzyl-10-hydroxy-10-((6-oxo-4-(pyridin-3-yl)pyrimidin-1(6H)-yl)methyl)-7-azaspiro[4.5]decane-7-carboxamide], the IC50 lay in the range of 5 to 50 µM.

Turning to `O=C(NCc1ccccc1)N1CCC(O)(Cn2cnc(-c3ccncc3)cc2=O)C2(CCCC2)C1` (stereo not drawn) [Example 201, N-Benzyl-10-hydroxy-10-((6-oxo-4-(pyridin-4-yl)pyrimidin-1(6H)-yl)methyl)-7-azaspiro[4.5]decane-7-carboxamide], the half-inhibitory concentration (IC50) lay within 0.5 to 5 µM.

On to `O=C(NCc1ccccc1)N1CCC(O)(Cn2cnc(N3CCCC3)cc2=O)C2(CCCC2)C1` (stereo not drawn) [Example 202, N-Benzyl-10-hydroxy-10-((6-oxo-4-(pyrrolidin-1-yl)pyrimidin-1(6H)-yl)methyl)-7-azaspiro[4.5]decane-7-carboxamide], for which the IC50 lay in the range of 5 to 50 µM.

Take `O=C(NCc1ccccc1)N1CCC(O)(Cn2cnc(N3CCOCC3)cc2=O)C2(CCCC2)C1` (stereo not drawn) [Example 203, N-Benzyl-10-hydroxy-10-((4-morpholino-6-oxopyrimidin-1(6H)-yl)methyl)-7-azaspiro[4.5]decane-7-carboxamide]: the IC50 is 50 to 250 µM.

Consider `Cn1cc(-c2cc(=O)n(CC3(O)CCN(C(=O)NCc4ccccc4)CC34CCCC4)cn2)cn1` (stereo not drawn) [Example 204, N-Benzyl-10-hydroxy-10-((4-(1-methyl-1H-pyrazol-4-yl)-6-oxopyrimidin-1(6H)-yl)methyl)-7-azaspiro[4.5]decane-7-carboxamide], for which the IC50 is 5 to 50 µM.

`Cn1nccc1-c1cc(=O)n(CC2(O)CCN(C(=O)NCc3ccccc3)CC23CCCC3)cn1` (stereo not drawn) [Example 205, N-Benzyl-10-hydroxy-10-((4-(1-methyl-1H-pyrazol-5-yl)-6-oxopyrimidin-1(6H)-yl)methyl)-7-azaspiro[4.5]decane-7-carboxamide]: the IC50 fell in the range of 0.5 to 5 µM.

Consider `O=C(N1CCC(O)(Cn2cnc(-c3ccccc3)cc2=O)C2(CCCC2)C1)N1CCCC1C(F)(F)F` (stereo not drawn) [Example 206, 3-((10-Hydroxy-7-(2-(trifluoromethyl)pyrrolidine-1-carbonyl)-7-azaspiro[4.5]decan-10-yl)methyl)-6-phenylpyrimidin-4(3H)-one], for which the IC50 lay within 0.5 to 5 µM.

Regarding `C[C@@H]1CNCCN1C(=O)N1CCC(O)(Cn2cnc(-c3ccccc3)cc2=O)C2(CCCC2)C1` (stereo partly drawn) [Example 207, 3-((10-Hydroxy-7-((R)-2-methylpiperazine-1-carbonyl)-7-azaspiro[4.5]decan-10-yl)methyl)-6-phenylpyrimidin-4(3H)-one], the IC50 lay in the range of 50 to 250 µM.

With `CC(C)C1CNCCN1C(=O)N1CCC(O)(Cn2cnc(-c3ccccc3)cc2=O)C2(CCCC2)C1` (stereo not drawn) [Example 208, 3-((10-Hydroxy-7-(2-isopropylpiperazine-1-carbonyl)-7-azaspiro[4.5]decan-10-yl)methyl)-6-phenylpyrimidin-4(3H)-one], the IC50 lay within 50 to 250 µM.

`O=C(N1CC2CC2C1)N1CCC(O)(Cn2cnc(-c3ccccc3)cc2=O)C2(CCCC2)C1` (stereo not drawn) [Example 209, 3-((7-(3-Azabicyclo[3.1.0]hexane-3-carbonyl)-10-hydroxy-7-azaspiro[4.5]decan-10-yl)methyl)-6-phenylpyrimidin-4(3H)-one]: the IC50 lay in the range of 50 to 250 µM.

Take `O=C(N1CC[C@@](O)(Cn2cnc(-c3ccccc3)cc2=O)C2(CCCC2)C1)N1CCNC[C@@H]1c1ccccc1` [Example 210, 3-(((S)-10-Hydroxy-7-((S)-2-phenylpiperazine-1-carbonyl)-7-azaspiro[4.5]decan-10-yl)methyl)-6-phenylpyrimidin-4(3H)-one]: the IC50 was below 0.5 µM.

Regarding `O=C(N1CC[C@@](O)(Cn2cnc(-c3ccccc3)cc2=O)C2(CCCC2)C1)N1CCOC[C@H]1c1ccccc1` [Example 211, 3-(((S)-10-Hydroxy-7-((R)-3-phenylmorpholine-4-carbonyl)-7-azaspiro[4.5]decan-10-yl)methyl)-6-phenylpyrimidin-4(3H)-one], the IC50 is below 0.5 µM.

For `O=C(N1CC[C@@](O)(Cn2cnc(-c3ccccc3)cc2=O)C2(CCCC2)C1)N1CCOC[C@@H]1c1ccccc1` [Example 212, 3-(((S)-10-Hydroxy-7-((S)-3-phenylmorpholine-4-carbonyl)-7-azaspiro[4.5]decan-10-yl)methyl)-6-phenylpyrimidin-4(3H)-one], the IC50 lay in the range of 50 to 250 µM.

For `O=C(N1CC[C@@](O)(Cn2cnc(-c3ccccc3)cc2=O)C2(CCCC2)C1)N1CCC[C@H]1c1ccccc1` [Example 213, 3-(((S)-10-Hydroxy-7-((S)-2-phenylpyrrolidine-1-carbonyl)-7-azaspiro[4.5]decan-10-yl)methyl)-6-phenylpyrimidin-4(3H)-one], the IC50 is below 0.5 µM.

Regarding `O=C(NCc1cccs1)N1CC[C@@](O)(Cn2cnc(-c3ccccc3)cc2=O)C2(CCCC2)C1` [Example 214, (S)-10-Hydroxy-10-((6-oxo-4-phenylpyrimidin-1(6H)-yl)methyl)-N-(thiophen-2-ylmethyl)-7-azaspiro[4.5]decane-7-carboxamide], the IC50 is below 0.5 µM.

Take `N#Cc1ccc(CNC(=O)N2CC[C@@](O)(Cn3cnc(-c4ccccc4)cc3=O)C3(CCCC3)C2)cc1` [Example 215, (S)—N-(4-Cyanobenzyl)-10-hydroxy-10-((6-oxo-4-phenylpyrimidin-1(6H)-yl)methyl)-7-azaspiro[4.5]decane-7-carboxamide]: the IC50 lay within 50 to 250 µM.

Take `O=C(NCc1cccc(F)c1)N1CC[C@@](O)(Cn2cnc(-c3ccccc3)cc2=O)C2(CCCC2)C1` [Example 216, (S)—N-(3-Fluorobenzyl)-10-hydroxy-10-((6-oxo-4-phenylpyrimidin-1(6H)-yl)methyl)-7-azaspiro[4.5]decane-7-carboxamide]: the IC50 is below 0.5 µM.

Consider `O=C(NCc1ccc2c(c1)OCO2)N1CC[C@@](O)(Cn2cnc(-c3ccccc3)cc2=O)C2(CCCC2)C1` [Example 217, (S)—N-(Benzo[d][1,3]dioxol-5-ylmethyl)-10-hydroxy-10-((6-oxo-4-phenylpyrimidin-1(6H)-yl)methyl)-7-azaspiro[4.5]decane-7-carboxamide], for which the IC50 fell in the range of 5 to 50 µM.

Consider `O=C(NCc1noc(C2CC2)n1)N1CC[C@@](O)(Cn2cnc(-c3ccccc3)cc2=O)C2(CCCC2)C1` [Example 218, (S)—N-((5-Cyclopropyl-1,2,4-oxadiazol-3-yl)methyl)-10-hydroxy-10-((6-oxo-4-phenylpyrimidin-1(6H)-yl)methyl)-7-azaspiro[4.5]decane-7-carboxamide], for which the IC50 fell in the range of 5 to 50 µM.

As to `O=C(NCc1ccco1)N1CC[C@@](O)(Cn2cnc(-c3ccccc3)cc2=O)C2(CCCC2)C1` [Example 219, (S)—N-(Furan-2-ylmethyl)-10-hydroxy-10-((6-oxo-4-phenylpyrimidin-1(6H)-yl)methyl)-7-azaspiro[4.5]decane-7-carboxamide], the IC50 was below 0.5 µM.

As for `O=C(N1CC[C@@](O)(Cn2cnc(Cl)cc2=O)C2(CCCC2)C1)N1CCOC[C@H]1c1ccccc1` [Example 220, 6-Chloro-3-(((S)-10-hydroxy-7-((R)-3-phenylmorpholine-4-carbonyl)-7-azaspiro[4.5]decan-10-yl)methyl)pyrimidin-4(3H)-one], the IC50 is below 0.5 µM.

In the case of `O=C(N1CC(C(F)(F)F)C1)N1CC[C@@](O)(Cn2cnc(-c3ccccc3)cc2=O)C2(CCCC2)C1` [Example 221, (S)-3-((10-Hydroxy-7-(3-(trifluoromethyl)azetidine-1-carbonyl)-7-azaspiro[4.5]decan-10-yl)methyl)-6-phenylpyrimidin-4(3H)-one], the IC50 is 0.5 to 5 µM.
